Measured values published in PubChem BioAssay AID248 (DTP/NCI, 2004).
Toxic doses and inconclusive results are not listed. No stated cut-off is given here; in the data, active means T/C of 150% or more; inactive means T/C below 125%. Square brackets hold non-standard residues; d marks the D form. Peptide text beside a SMILES is read from it. * marks the point of attachment. ξ: configuration not given here. ξV = CC(C)C(N)C(=O)O; ClAc = O=C(CCl)*

Test system: L1210 leukemia ip in BDF1 mice, survival T/C
Experiment: NCI In Vivo Anticancer Drug Screen. Data for tumor model L1210 Leukemia (intraperitoneal) in B6D2F1 (BDF1) mice
Conditions: endpoint: mean survival time, higher = longer survival
Procedure, shortened: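 Antitumor effect is assessed in tumor-bearing animals. Survival in the compound arm is compared with a vehicle-dosed control arm and expressed as their quotient.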

[1] = dose: 100.0 mg/kg/injection, schedule: Q01DX009 (ip), vehicle: Klucel (hydroxypropylcellulose) (HPC)
[2] = dose: 100.0 mg/kg/injection, schedule: Q04DX003 (ip), vehicle: Klucel (hydroxypropylcellulose) (HPC)
[3] = dose: 200.0 mg/kg/injection, schedule: Q01DX009 (ip), vehicle: Klucel (hydroxypropylcellulose) (HPC)
[4] = dose: 200.0 mg/kg/injection, schedule: Q04DX003 (ip), vehicle: Klucel (hydroxypropylcellulose) (HPC)
[5] = dose: 400.0 mg/kg/injection, schedule: Q01DX009 (ip), vehicle: Klucel (hydroxypropylcellulose) (HPC)
[6] = dose: 400.0 mg/kg/injection, schedule: Q04DX003 (ip), vehicle: Klucel (hydroxypropylcellulose) (HPC)
[7] = dose: 100.0 mg/kg/injection, schedule: Q04DX003 (ip), vehicle: saline with Tween-80
[8] = dose: 200.0 mg/kg/injection, schedule: Q04DX003 (ip), vehicle: saline with Tween-80
[9] = dose: 400.0 mg/kg/injection, schedule: Q04DX003 (ip), vehicle: saline with Tween-80
[10] = dose: 100.0 mg/kg/injection, schedule: Q04DX002 (ip), vehicle: saline with Tween-80
[11] = dose: 200.0 mg/kg/injection, schedule: Q04DX002 (ip), vehicle: saline with Tween-80
[12] = dose: 400.0 mg/kg/injection, schedule: Q04DX002 (ip), vehicle: saline with Tween-80
[13] = dose: 100.0 mg/kg/injection, schedule: Q01DX001 (ip), vehicle: carboxymethylcellulose (CMC)
[14] = dose: 200.0 mg/kg/injection, schedule: Q01DX001 (ip), vehicle: carboxymethylcellulose (CMC)
[15] = dose: 400.0 mg/kg/injection, schedule: Q01DX001 (ip), vehicle: carboxymethylcellulose (CMC)
[16] = dose: 50.0 mg/kg/injection, schedule: Q01DX001 (ip), vehicle: carboxymethylcellulose (CMC)
[17] = dose: 100.0 mg/kg/injection, schedule: Q01DX009 (ip), vehicle: saline with Tween-80
[18] = dose: 200.0 mg/kg/injection, schedule: Q01DX009 (ip), vehicle: saline with Tween-80
[19] = dose: 400.0 mg/kg/injection, schedule: Q01DX009 (ip), vehicle: saline with Tween-80
[20] = dose: 100.0 mg/kg/injection, schedule: Q01DX001 (ip), vehicle: saline
[21] = dose: 200.0 mg/kg/injection, schedule: Q01DX001 (ip), vehicle: saline
[22] = dose: 400.0 mg/kg/injection, schedule: Q01DX001 (ip), vehicle: saline

Measured: T/C

O=C1c2ccccc2C(=O)c2c(Nc3ccc(CCO)cc3)ccc(O)c21
inactive: [1] 103 % of control | [2] 102 % of control | [3] 97 % of control | [4] 100 % of control | [5] 101 % of control | [6] 102 % of control

CC(/C=C\c1ccc([N+](=O)[O-])cc1)=N\NC(=O)c1ccncc1
inactive: [7] 98 % of control | [8] 98 % of control | [9] 96 % of control

Oc1ccc2c(c1)CCc1cn[nH]c1-2
inactive: dose: 100.0 mg/kg/injection, schedule: Q01DX001 (ip), vehicle: other 102 % of control | dose: 100.0 mg/kg/injection, schedule: Q01DX009 (ip), vehicle: other 98 % of control | dose: 200.0 mg/kg/injection, schedule: Q01DX001 (ip), vehicle: other 103 % of control | dose: 200.0 mg/kg/injection, schedule: Q01DX009 (ip), vehicle: other 96 % of control | dose: 400.0 mg/kg/injection, schedule: Q01DX001 (ip), vehicle: other 98 % of control | dose: 400.0 mg/kg/injection, schedule: Q01DX009 (ip), vehicle: other 94 % of control

Cc1cnc(N)cn1 (tested in a mixture with another compound)
inactive: [2] 102 % of control | [4] 109 % of control | [6] 88 % of control

[O-][n+]1c2ccccc2c(Cl)c2ccc3ccccc3c21
inactive: [10] 93 % of control | [11] 90 % of control | [12] 90 % of control

Cc1ccc(N=Nc2ccc(C)cc2NC(=O)c2ccc(Cl)c(Cl)c2)cc1
inactive: dose: 100.0 mg/kg/injection, schedule: Q04DX002 (ip), vehicle: Klucel (hydroxypropylcellulose) (HPC) 120 % of control | dose: 200.0 mg/kg/injection, schedule: Q04DX002 (ip), vehicle: Klucel (hydroxypropylcellulose) (HPC) 103 % of control | dose: 400.0 mg/kg/injection, schedule: Q04DX002 (ip), vehicle: Klucel (hydroxypropylcellulose) (HPC) 97 % of control

Nc1nc(N)c(CCc2ccccc2)c(=O)[nH]1
inactive: [7] 100 % of control | [8] 94 % of control | [9] 94 % of control

Nc1cccc2c1/C(=N/O)c1ccccc1-2
inactive: [13] 98 % of control | [14] 100 % of control | [15] 98 % of control

NC(=S)N/N=C\c1ccccc1/C=N/NC(N)=S
inactive: [16] 109 % of control | [13] 98 % of control | [14] 98 % of control | [15] 98 % of control

CC(C)C(NC(=O)CNC(=O)CCl)C(=O)O (stereo unspecified) (ClAc-Gly-[ξV]-OH)
inactive: [7] 101 % of control | [8] 101 % of control

c1ccc(P(CN(CCN(CP(c2ccccc2)c2ccccc2)CP(c2ccccc2)c2ccccc2)CP(c2ccccc2)c2ccccc2)c2ccccc2)cc1
inactive: dose: 100.0 mg/kg/injection, schedule: Q04DX002 (sc), vehicle: olive oil, sesame oil, peanut oil 100 % of control | dose: 200.0 mg/kg/injection, schedule: Q04DX002 (sc), vehicle: olive oil, sesame oil, peanut oil 110 % of control | dose: 400.0 mg/kg/injection, schedule: Q04DX002 (sc), vehicle: olive oil, sesame oil, peanut oil 107 % of control

CCOc1ccc(Br)cc1C1N(Cc2ccccc2OC)CCCN1Cc1ccccc1OC
inactive: [13] 100 % of control | [14] 92 % of control | [15] 94 % of control

O=C(/C=N\O)c1ccncc1
inactive: [1] 100 % of control | [3] 94 % of control

CCn1c2ccccc2c2ccc(C(C)=O)cc21
inactive: dose: 75.0 mg/kg/injection, schedule: Q01DX001 (ip), vehicle: carboxymethylcellulose (CMC) 95 % of control | dose: 150.0 mg/kg/injection, schedule: Q01DX001 (ip), vehicle: carboxymethylcellulose (CMC) 95 % of control | dose: 300.0 mg/kg/injection, schedule: Q01DX001 (ip), vehicle: carboxymethylcellulose (CMC) 97 % of control

CCOC(=O)NNC(=O)c1ccccc1N(C)C
inactive: [1] 94 % of control | [2] 101 % of control | [3] 91 % of control | [4] 101 % of control | [5] 97 % of control | [6] 95 % of control

O=C(OCCCCCCl)c1ccccc1
inactive: [17] 100 % of control | [7] 106 % of control | [18] 104 % of control | [8] 97 % of control | [19] 98 % of control | [9] 95 % of control

CC(=O)Oc1c(C)cc([N+](=O)[O-])cc1[N+](=O)[O-]
inactive: dose: 25.0 mg/kg/injection, schedule: Q04DX003 (ip), vehicle: Klucel (hydroxypropylcellulose) (HPC) 91 % of control | dose: 50.0 mg/kg/injection, schedule: Q04DX003 (ip), vehicle: Klucel (hydroxypropylcellulose) (HPC) 86 % of control

[CH3][Ge]([CH3])([CH3])[CH2]CCl
inactive: [10] 98 % of control | [11] 91 % of control | [12] 98 % of control

O=C(O)c1cc(N=Nc2ncn[nH]2)ccc1O
inactive: dose: 87.5 mg/kg/injection, schedule: Q04DX003 (ip), vehicle: Klucel (hydroxypropylcellulose) (HPC) 96 % of control | dose: 175.0 mg/kg/injection, schedule: Q04DX003 (ip), vehicle: Klucel (hydroxypropylcellulose) (HPC) 97 % of control | dose: 350.0 mg/kg/injection, schedule: Q04DX003 (ip), vehicle: Klucel (hydroxypropylcellulose) (HPC) 100 % of control

CCCCNC(=O)c1ccc(C)c(OCc2ccccc2)c1[N+](=O)[O-]
inactive: [20] 108 % of control | [21] 87 % of control | [22] 90 % of control

C[CH2][Sn]([Cl])([Cl])[CH2]C.Oc1ccccc1C=NCCN=Cc1ccccc1O
inactive: dose: 5.0 mg/kg/injection, schedule: Q01DX009 (ip), vehicle: saline with Tween-80 98 % of control | dose: 5.0 mg/kg/injection, schedule: Q04DX003 (ip), vehicle: saline with Tween-80 106 % of control | dose: 10.0 mg/kg/injection, schedule: Q01DX009 (ip), vehicle: saline with Tween-80 97 % of control | dose: 10.0 mg/kg/injection, schedule: Q04DX003 (ip), vehicle: saline with Tween-80 100 % of control | dose: 20.0 mg/kg/injection, schedule: Q04DX003 (ip), vehicle: saline with Tween-80 108 % of control

O=C(Cn1ccc(O)cc1=O)c1cccs1
inactive: [17] 102 % of control | [7] 101 % of control | [18] 100 % of control | [8] 100 % of control | [19] 98 % of control | [9] 100 % of control

O=C(Nc1cccc(C(F)(F)F)c1)Nc1ccc(Cl)c(Cl)c1
inactive: [16] 96 % of control | [13] 102 % of control | [14] 98 % of control | [15] 113 % of control

Cc1ccccc1OS(=O)(=O)c1ccccc1[N+](=O)[O-]
inactive: [17] 103 % of control | [2] 95 % of control | [18] 90 % of control | [4] 104 % of control | [19] 108 % of control | [6] 90 % of control

O=C(CNC(=O)Nc1ccc(Cl)c(Cl)c1)N/N=C/c1cccc(F)c1
inactive: dose: 50.0 mg/kg/injection, schedule: Q01DX009 (ip), vehicle: saline with Tween-80 96 % of control | [17] 93 % of control | [18] 89 % of control

S=C(Cc1ccc2ccccc2c1)N1CCN(c2ccccc2)CC1
inactive: dose: 100.0 mg/kg/injection, schedule: Q01DX001 (ip), vehicle: olive oil, sesame oil, peanut oil 92 % of control | dose: 100.0 mg/kg/injection, schedule: Q04DX003 (sc), vehicle: olive oil, sesame oil, peanut oil 100 % of control | dose: 200.0 mg/kg/injection, schedule: Q01DX001 (ip), vehicle: olive oil, sesame oil, peanut oil 97 % of control | dose: 200.0 mg/kg/injection, schedule: Q04DX003 (sc), vehicle: olive oil, sesame oil, peanut oil 111 % of control | dose: 400.0 mg/kg/injection, schedule: Q01DX001 (ip), vehicle: olive oil, sesame oil, peanut oil 97 % of control | dose: 400.0 mg/kg/injection, schedule: Q04DX003 (sc), vehicle: olive oil, sesame oil, peanut oil 107 % of control

CC(=O)N(C(C)=O)c1ccc2c(c1)-n1cccc1C2=O
inactive: [2] 100 % of control | [4] 101 % of control | [6] 98 % of control

NC(=S)c1nnn(Cc2ccccc2)c1N
inactive: [20] 100 % of control | [21] 101 % of control | [22] 102 % of control
